Experimental data: patent US11912755B2, “Endostatin fragments and variants for use in treating fibrosis” (iBio, Inc., priority 2015, dated 2024)
Entries after “also recorded” stand apart in the source; their conditions may differ. Ends that are not written are not given here.

Assays:
[1] = system: human skin explants; assay: Ex vivo human skin assay, dermal thickness; type: cell-based
Method: Ex vivo human skin assays. Human abdominal skin was obtained from corrective plastic surgery. As previously described (Yasuoka et al., The Open Rheumatol J 2008; 2:17-22), subcutaneous fat tissue was removed uniformly and skin tissue was cut into 1.5 cm×1.5 cm sections. The following were injected intradermally in a total volume of 100 μl 1×PBS: rE alone (1-10 μg/ml), endostatin peptides alone (10 μg/ml), rE or endostatin peptides (1-20 μg/ml) in combination with TGF-β (10 ng/ml), and TGF-β alone (10 ng/ml). In some experiments, human skin was first injected with TGF-β for 48 h followed by recombinant endostatin (rE) administration in the same injection site as TGF-β. Explants containing complete epidermal and dermal layers were cultured in an air liquid interface with the epidermal and keratin layers side up and exposed to air. The culture medium was replaced every other day. After 1 or 2 weeks, skin tissue corresponding to an area with 8-mm diameter centered around the injection site was harvested using disposable 8-mm ACUPUNCH® (Acuderm, Inc., Lauderdale, FL). Skin tissue was fixed in 10% formalin prior to embedding in paraffin.
Measurement of Skin Dermal Thickness. Six μm sections of paraffin-embedded human and mouse skin tissues were stained with hematoxylin and eosin (H&E). In some experiments, sections were stained with Masson trichrome which identifies collagens. Images were taken on a Nikon Eclipse 800 microscope. The thickness of the dermis was measured in 6 random fields of each section using the image/J® software. Data are shown in arbitrary units.

[2] = system: lysyl oxidase (LOX); assay: LOX immunohistochemistry in lung sections of bleomycin-treated mice; type: in vivo, mouse; conditions: bleomycin with or without E4
Excerpt: FIG. 12. […] Lung sections of mice treated with BLM with or without E4 were used in immunohistochemistry to detect LOX. The sections shown are control IgG, phosphate buffered saline, bleomycin and bleomycin followed by treatment with E4.

[3] = system: Egr-1; assay: Western blot of Egr-1 in primary human lung fibroblasts; type: cell-based; conditions: harvested after 24 hours
Method: FIG. 16. […] Reduction of Egr-1 levels parallels that of collagen, SMA, and fibronectin. Lane 1: vehicle (DMSO); Lane 2: E4; Lane 3: TGFβ, Lane 4 TGFβ followed by E4 after 60 minutes. The samples were harvested after 24 hours.
In addition, E4 increases levels of inhibitor of differentiation (ID)-1, a transcription factor that inhibits TGF-β effects (see FIG. 15). It was determined in a Western blot analysis that E4 reduces the levels of the master switch transcription factor, Egr-1 (see FIG. 16) in primary human lung fibroblasts, treated and harvested after 24 hours. The reduction of Egr-1 levels parallels a reduction in collagen, SMA and fibronectin. Egr-1 is known to mediate the effects of several fibrotic agents (including TGF-β and bleomycin).

[4] = system: CTGF; assay: Genes regulated by E4: CTGF; type: cell-based; conditions: primary human fibroblasts treated with bleomycin or TGF-β; RT-qPCR
Method: (§1) Several experiments have been performed to identify the mechanisms by which E4 exerts its anti-fibrotic activity. Real-time quantitative PCR (qPCR)-based arrays were performed on RNA extracted from primary human lung fibroblasts or mouse lung tissue stimulated with various fibrotic triggers in the absence and presence of E4 treatment in order to identify genes influenced by the endostatin peptide.
(§2) The arrays identified several genes that have been previously implicated in fibrosis to be influenced by E4 treatment. These genes included connective tissue growth factor (CTGF), insulin-like growth factor binding protein (IGFBP)-3, matrix metalloproteases (MMP)-1 and MMP-3, urokinase plasminogen activator (uPA), plasminogen activator inhibitor (PAI)-1, and hepatocyte growth factor (HGF) with levels either decreased or increased in the presence of E4 as shown in TABLE 5.

[5] = system: uPA; assay: Genes regulated by E4: uPA; type: cell-based, human; conditions: HuF-T; RT-qPCR, protein expression levels, enzyme activity
Method: as §1, §2

[6] = system: MMP-1; assay: Genes regulated by E4: MMP-1; type: cell-based, human; conditions: HuF-T; RT-qPCR, protein expression levels, zymography, MMP-1 activity assay
Method: as §1, §2

[7] = system: bleomycin induced dermal fibrosis; conditions: s.c.; single dose prophylactically, or multiple dose regimen starting 3 days after bleomycin; cited from earlier work

Substance: E4: SEQ ID NO: 21, amino acids 133-180 of human endostatin with a C-terminal amide (SYCETWRTEAPSATGQASSLLGGRLLGQSAASCHHAYIVLCIENSFMT-NH2; cysteine pairing not given here)
- TGF-β-induced skin fibrosis, dose response ([1]; concentrations of 5-20 μg/ml with TGF-β): clearly ameliorated
- dermal thickness, baseline effect ([1]; injected alone, no TGF-β, rE 1, 5, 10 μg/ml, peptides 10 μg/ml): tendency towards reduction
- development of fibrosis as measured by dermal thickness ([1]; peptides 10 μg/ml with 10 ng/ml TGF-β, vs TGF-β alone): significantly abolished
- LOX levels in lung [2]: reduces levels; also recorded: reducing levels
- Egr-1 levels [3]: reduces
- Egr-1 levels ([3]; listed as E-4): reducing levels
- Effect of E4 peptide on CTGF [4]: reduces; also recorded: Decrease
- Effect of E4 peptide on uPA [5]: Increase
- Effect of E4 peptide on MMP-1 [6]: induces; also recorded: Increase; also recorded: increased levels and activity
- skin thickness [7]: E4 significantly decreased skin
